{"source": "patent US8373006B2", "about": "“Anti-leishmanial compound and anti-leishmanial drug” (Aoyama Gakuin Educational Foundation, priority 2010, dated 2013)", "key": {"[1]": {"system": "L. major/egfp promastigotes", "assay": "Analysis of in vitro anti-leishmanial activity (growth inhibition, egfp fluorescence)", "type": "cell-based, Leishmania major", "conditions": "25° C., 72 h, Amphotericin B positive control defined as 100%, FIG. 9", "description": "The compounds represented by formulas (1) to (6), which had been isolated by the procedure described above, were subjected to an analysis of the physiological activity under the conditions that are described below. Leishmania major promastigotes were selected as the Leishmania protozoa, and a L. major/egfp promastigotes in which a fluorescent protein egfp gene had been introduced was used. The compounds mentioned above were used as samples. Thus, the growth inhibition rate was determined under the following conditions.\nL. major/egfp promastigotes were maintained at 25° C. using a 96-well plate, in 199 medium (NISSUI Pharmaceutical) containing 10% fetal bovine serum 25 mM and Hepes buffer (ICN Biomedeivals, Inc., Aurora, Ohio) and 10 μg/mL Tunicamycin (SIGMA-ALDRICH, inc., USA). Subsequently, to each well of 96-well plates containing 100 μL of L. major/egfp suspension with 1×10^6 cells/mL, 100 μL of test solution (sample dissolved in DMSO) was added, and the plates were incubated at 25° C. for 72 h. Thereafter, Fluorescence signals of L. major/egfp promastigotes were measured with a fluorescence microplate reader (Fluoroscan Ascent FL, Dainippon Pharmaceutical Co.) with excitation at 485 nm and emission at 538 nm. […]"}, "L. major PM2": {"system": "L. major PM2", "assay": "Analysis of in vivo anti-leishmanial activity in leishmaniasis mouse model", "conditions": "Balb/c mice infected with L. major PM2; 200 μg by peritoneal injection once a day for three weeks; FIG. 10-12", "description": "In order to evaluate the in vivo anti-leishmanial activity of the compound represented by formula (3), which had been isolated by the procedure described above, a leishmaniasis mouse model was used to investigate the therapeutic effect. Six-week old mice (Balb/c, male, 6 animals per group) were infected with 1×10^7 cells of cultured promastigotes of L. major PM2. From the day after the infection day, the compound represented by the formula (3) was administered to each specimen in an amount of 200 [μg by peritoneal injection. The administration schedule was such that the compound was continuously administered once a day for three weeks. Further, as control, the same analysis was carried out also for a treatment group to which Amphotericin B was administered, and for a treatment group to which none was administered."}}, "data": [{"compound": "CC(C)=CCC/C(C)=C/CC/C(C)=C/CC/C(C)=C/CC1(CC(=O)O)CC(=O)C=CC1=O", "note": "(centres unmarked) [formula (3)]", "values": [{"measurement": "growth inhibition rate", "setting": "[1]", "result": "almost equal to the growth inhibition rate of Amphotericin B"}, {"measurement": "in vivo anti-leishmanial activity (size of ulcer, antibody titer in blood, protozoan DNA in blood)", "setting": "L. major PM2", "result": "equal to that of Amphotericin B"}]}]}
